Source: the supplement of paper PMC10307832

How the values were obtained:
Assay in all cases: relative viability (nuclei count vs DMSO), 5 days (fraction); higher = more cells survive
HCC-366 = tested on: HCC-366
Method in brief: (§1)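 Nuclei were stained with Hoechst during a one-step fixation (final 0.05% Triton X-100, 1% formaldehyde, 1 ug/ml Hoechst) carried out 5 days after dosing, then counted on 4× images. The cells, lung cancer lines in 1536-well plates, had been dosed by pin tool the day after seeding with one drug alone or a fixed anchor-drug dose plus five library-drug doses (not always all listed) in √10 steps. Relative viability is the nuclei count in treated wells divided by that in vehicle wells, and each value is the median of duplicate plates.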

NCI-H1993 = tested on: NCI-H1993
Method in brief: as §1

NCI-H1944 = tested on: NCI-H1944
Method in brief: as §1

HOP-62 = tested on: HOP-62
Method in brief: as §1

ChaGo-K-1 = tested on: ChaGo-K-1
Method in brief: as §1

SK-LU-1 = tested on: SK-LU-1
Method in brief: as §1

NCI-H23 = tested on: NCI-H23
Method in brief: as §1

NCI-H838 = tested on: NCI-H838
Method in brief: as §1

NCI-H358 = tested on: NCI-H358
Method in brief: as §1

NCI-H1395 = tested on: NCI-H1395
Method in brief: as §1

HARA = tested on: HARA
Method in brief: as §1

Nc1ccn([C@@H]2O[C@H](CO)[C@@H](O)[C@@H]2O)c(=O)n1 [Cytarabine] + N=C(N)NC(=N)NCCc1ccccc1 [Phenformin] (partner 250 µM)
relative viability (HCC-366; first compound 0.005 µM): 0.617
relative viability (HCC-366; first compound 0.01581 µM): 0.586
relative viability (HCC-366; first compound 0.05 µM): 0.528
relative viability (HCC-366; first compound 0.1581 µM): 0.2
relative viability (HCC-366; first compound 0.5 µM): 0.0951
relative viability (NCI-H1993; first compound 0.005 µM): 0.588
relative viability (NCI-H1993; first compound 0.01581 µM): 0.483
relative viability (NCI-H1993; first compound 0.05 µM): 0.529
relative viability (NCI-H1993; first compound 0.1581 µM): 0.515
relative viability (NCI-H1993; first compound 0.5 µM): 0.422
relative viability (NCI-H1944; first compound 0.005 µM): 0.166
relative viability (NCI-H1944; first compound 0.01581 µM): 0.184
relative viability (NCI-H1944; first compound 0.05 µM): 0.14
relative viability (NCI-H1944; first compound 0.1581 µM): 0.106
relative viability (NCI-H1944; first compound 0.5 µM): 0.103
relative viability (HOP-62; first compound 0.005 µM): 0.506
relative viability (HOP-62; first compound 0.01581 µM): 0.486
relative viability (HOP-62; first compound 0.05 µM): 0.399
relative viability (HOP-62; first compound 0.1581 µM): 0.156
relative viability (HOP-62; first compound 0.5 µM): 0.152
relative viability (ChaGo-K-1; first compound 0.005 µM): 0.421
relative viability (ChaGo-K-1; first compound 0.01581 µM): 0.342
relative viability (ChaGo-K-1; first compound 0.05 µM): 0.323
relative viability (ChaGo-K-1; first compound 0.1581 µM): 0.176
relative viability (ChaGo-K-1; first compound 0.5 µM): 0.181
relative viability (SK-LU-1; first compound 0.005 µM): 0.353
relative viability (SK-LU-1; first compound 0.01581 µM): 0.413
relative viability (SK-LU-1; first compound 0.05 µM): 0.445
relative viability (SK-LU-1; first compound 0.1581 µM): 0.241
relative viability (SK-LU-1; first compound 0.5 µM): 0.2
relative viability (NCI-H23; first compound 0.005 µM): 0.784
relative viability (NCI-H23; first compound 0.01581 µM): 0.649
relative viability (NCI-H23; first compound 0.05 µM): 0.721
relative viability (NCI-H23; first compound 0.1581 µM): 0.367
relative viability (NCI-H23; first compound 0.5 µM): 0.156
relative viability (NCI-H838; first compound 0.005 µM): 0.482
relative viability (NCI-H838; first compound 0.01581 µM): 0.532
relative viability (NCI-H838; first compound 0.05 µM): 0.422
relative viability (NCI-H838; first compound 0.1581 µM): 0.241
relative viability (NCI-H838; first compound 0.5 µM): 0.201
relative viability (NCI-H358; first compound 0.005 µM): 0.235
relative viability (NCI-H358; first compound 0.01581 µM): 0.2
relative viability (NCI-H358; first compound 0.05 µM): 0.222
relative viability (NCI-H358; first compound 0.1581 µM): 0.0765
relative viability (NCI-H358; first compound 0.5 µM): 0.076
relative viability (NCI-H1395; first compound 0.005 µM): 0.411
relative viability (NCI-H1395; first compound 0.01581 µM): 0.392
relative viability (NCI-H1395; first compound 0.05 µM): 0.353
relative viability (NCI-H1395; first compound 0.1581 µM): 0.319
relative viability (NCI-H1395; first compound 0.5 µM): 0.31
relative viability (HARA; first compound 0.005 µM): 0.359
relative viability (HARA; first compound 0.01581 µM): 0.325
relative viability (HARA; first compound 0.05 µM): 0.296
relative viability (HARA; first compound 0.1581 µM): 0.196
relative viability (HARA; first compound 0.5 µM): 0.0852
